{"source": "patent US8513440B2", "about": "“Compositions and methods comprising analogues of radicicol A” (Universite de Strasbourg, priority 2007, dated 2013)", "assay_in_all_cases": "radiometric protein kinase assay (33PanQinase Activity Assay)", "format_in_all_cases": "biochemical", "key": {"FLT3": {"target": "T1, FLT3 (Homo sapiens, UniProt P36888)", "T1 construct": "made in house; host or cells: Sf9 insect cells (baculovirus)", "T1 sequence (P36888 27-993)": "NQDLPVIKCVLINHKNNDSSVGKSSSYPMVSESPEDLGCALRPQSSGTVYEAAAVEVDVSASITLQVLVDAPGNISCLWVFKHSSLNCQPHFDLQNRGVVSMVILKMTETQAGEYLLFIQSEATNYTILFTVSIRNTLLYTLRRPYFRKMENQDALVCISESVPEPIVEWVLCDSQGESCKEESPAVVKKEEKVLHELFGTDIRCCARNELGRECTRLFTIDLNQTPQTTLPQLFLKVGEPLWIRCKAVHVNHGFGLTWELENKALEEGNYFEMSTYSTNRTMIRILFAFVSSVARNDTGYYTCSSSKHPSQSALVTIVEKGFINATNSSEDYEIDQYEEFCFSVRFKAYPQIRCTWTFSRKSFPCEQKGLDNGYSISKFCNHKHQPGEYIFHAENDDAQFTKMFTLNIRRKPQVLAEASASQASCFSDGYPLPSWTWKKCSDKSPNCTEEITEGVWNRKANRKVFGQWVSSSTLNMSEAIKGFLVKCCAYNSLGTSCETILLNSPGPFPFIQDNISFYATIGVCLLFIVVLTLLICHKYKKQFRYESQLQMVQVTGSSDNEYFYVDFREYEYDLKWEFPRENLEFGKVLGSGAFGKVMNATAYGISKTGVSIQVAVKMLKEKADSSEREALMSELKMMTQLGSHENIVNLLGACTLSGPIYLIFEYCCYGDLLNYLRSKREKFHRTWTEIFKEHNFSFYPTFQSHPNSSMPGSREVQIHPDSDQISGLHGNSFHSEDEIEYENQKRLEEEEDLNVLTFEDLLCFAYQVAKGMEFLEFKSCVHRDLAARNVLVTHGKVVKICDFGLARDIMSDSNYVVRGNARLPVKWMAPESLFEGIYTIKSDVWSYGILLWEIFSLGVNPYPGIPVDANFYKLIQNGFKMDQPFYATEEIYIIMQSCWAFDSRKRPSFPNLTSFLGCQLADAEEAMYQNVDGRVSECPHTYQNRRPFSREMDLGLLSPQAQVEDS", "conditions": "panel of 24 kinases, 1 μM ATP", "description": "(§1) Radicicol A (1) and analogues 3 and 31 were tested for its inhibition in a panel of 24 kinase (AKT1, ARKS, Aurora-A, Aurora-B, B-RAF-VE, CDK2/CycA, CDK4/CycD1, CK2-α1, FAK, EPHB4, ERB2, EGF-R, IGF1-R, SRC, VEGF-R2, VEGF-R3, FLT3, INS-R, MET, PDGFR-β, PLK1, SAK, TIE2, COT) at 10 μM using the procedure described below.\n(§2) All protein kinases were expressed in Sf9 insect cells as human recombinant GST-fusion proteins or His-tagged proteins by means of the baculovirus expression system. Kinases were purified by affinity chromatography using either GSH-agarose (Sigma) or Ni-NTH-agarose (Qiagen). The purity of each kinase was checked by SDS-PAGE/silver staining and the identity of each kinase was verified by western blot analysis with kinase specific antibodies or by mass spectroscopy.\n(§3) A radiometric protein kinase assay (^33PanQinase® Activity Assay) was used for measuring the kinase activity of the 24 protein kinases. All kinase assays were performed in 96-well FIashPlates™ from Perkin Elmer (Boston, Mass., USA) in a 50 μl reaction volume. The reaction cocktail was pipetted in 4 steps in the following order: • 20 μl of assay buffer • 5 μl of ATP solution (in H2O) • 5 μl of test compound (in 10% DMSO) • 10 μl of substrate/10 μl of enzyme solution (premixed)\n(§4) The assay for all enzymes contained 60 mM HEPES-NaOH, pH 7.5, 3 mM MgCl2, 3 mM MnCl2, 3 μM Na-orthovanadate, 1.2 mM DTT, 50 μg/ml PEG20000, 1 μM [γ-^33P]-ATP (approx. 5×10^05 cpm per well).\n(§5) The reaction cocktails were incubated at 30° C. for 80 minutes. The reaction was stopped with 50 μl of 2% (v/v) H3PO4, plates were aspirated and washed two times with 200 μl of 0.9% (w/v) NaCl or 200 μl H2O. Incorporation of ^33Pi was determined with a microplate scintillation counter (Microbeta Trilux, Wallac). All assays were performed with a BeckmanCoulter/Sagian robotic system.\n(§6) Using the same method described above, compound 31 was evaluated in a panel of 127 kinase enzymes."}, "VEGF-R3": {"target": "T2, VEGF-R3 (Homo sapiens, UniProt P35916)", "T2 construct": "made in house; host or cells: Sf9 insect cells (baculovirus)", "T2 sequence (P35916 25-1363)": "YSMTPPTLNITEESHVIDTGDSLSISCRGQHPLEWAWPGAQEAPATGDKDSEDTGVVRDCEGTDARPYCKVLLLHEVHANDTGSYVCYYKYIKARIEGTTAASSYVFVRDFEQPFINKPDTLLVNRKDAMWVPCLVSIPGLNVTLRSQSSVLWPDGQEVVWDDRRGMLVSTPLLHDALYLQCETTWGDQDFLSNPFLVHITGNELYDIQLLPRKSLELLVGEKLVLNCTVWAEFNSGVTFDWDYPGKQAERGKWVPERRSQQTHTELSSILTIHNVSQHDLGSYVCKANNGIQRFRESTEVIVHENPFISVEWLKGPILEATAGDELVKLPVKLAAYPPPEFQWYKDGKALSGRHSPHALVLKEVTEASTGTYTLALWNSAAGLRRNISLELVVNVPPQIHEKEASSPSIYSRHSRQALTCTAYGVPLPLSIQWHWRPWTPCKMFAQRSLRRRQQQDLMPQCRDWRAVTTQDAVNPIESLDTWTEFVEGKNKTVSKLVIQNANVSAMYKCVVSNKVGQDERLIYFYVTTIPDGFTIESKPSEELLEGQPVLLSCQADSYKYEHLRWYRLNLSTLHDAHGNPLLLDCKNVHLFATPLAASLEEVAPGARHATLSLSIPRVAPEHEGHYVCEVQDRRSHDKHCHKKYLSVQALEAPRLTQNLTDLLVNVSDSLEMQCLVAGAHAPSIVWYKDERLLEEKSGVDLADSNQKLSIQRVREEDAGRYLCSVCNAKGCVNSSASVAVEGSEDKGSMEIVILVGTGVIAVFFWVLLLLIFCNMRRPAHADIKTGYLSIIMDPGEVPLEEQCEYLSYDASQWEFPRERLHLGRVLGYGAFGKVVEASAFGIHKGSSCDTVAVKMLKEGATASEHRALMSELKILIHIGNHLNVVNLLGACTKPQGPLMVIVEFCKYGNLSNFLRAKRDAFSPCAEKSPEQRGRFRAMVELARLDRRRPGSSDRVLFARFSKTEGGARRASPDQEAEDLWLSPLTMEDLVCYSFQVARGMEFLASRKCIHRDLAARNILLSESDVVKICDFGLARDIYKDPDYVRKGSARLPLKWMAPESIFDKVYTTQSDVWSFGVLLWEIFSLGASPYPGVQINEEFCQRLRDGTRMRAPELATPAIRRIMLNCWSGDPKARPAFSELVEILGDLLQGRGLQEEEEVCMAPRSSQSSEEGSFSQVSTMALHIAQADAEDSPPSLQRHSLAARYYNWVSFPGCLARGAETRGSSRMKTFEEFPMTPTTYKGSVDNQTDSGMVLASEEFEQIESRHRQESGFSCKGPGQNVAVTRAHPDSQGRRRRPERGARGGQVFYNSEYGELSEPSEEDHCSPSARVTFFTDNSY", "conditions": "panel of 24 kinases, 1 μM ATP", "description": "as §1, §2, §3, §4, §5, §6"}, "EPHB4": {"target": "T3, EPHB4 (Homo sapiens, UniProt P54760)", "T3 construct": "made in house; host or cells: Sf9 insect cells (baculovirus)", "T3 sequence (P54760 16-987)": "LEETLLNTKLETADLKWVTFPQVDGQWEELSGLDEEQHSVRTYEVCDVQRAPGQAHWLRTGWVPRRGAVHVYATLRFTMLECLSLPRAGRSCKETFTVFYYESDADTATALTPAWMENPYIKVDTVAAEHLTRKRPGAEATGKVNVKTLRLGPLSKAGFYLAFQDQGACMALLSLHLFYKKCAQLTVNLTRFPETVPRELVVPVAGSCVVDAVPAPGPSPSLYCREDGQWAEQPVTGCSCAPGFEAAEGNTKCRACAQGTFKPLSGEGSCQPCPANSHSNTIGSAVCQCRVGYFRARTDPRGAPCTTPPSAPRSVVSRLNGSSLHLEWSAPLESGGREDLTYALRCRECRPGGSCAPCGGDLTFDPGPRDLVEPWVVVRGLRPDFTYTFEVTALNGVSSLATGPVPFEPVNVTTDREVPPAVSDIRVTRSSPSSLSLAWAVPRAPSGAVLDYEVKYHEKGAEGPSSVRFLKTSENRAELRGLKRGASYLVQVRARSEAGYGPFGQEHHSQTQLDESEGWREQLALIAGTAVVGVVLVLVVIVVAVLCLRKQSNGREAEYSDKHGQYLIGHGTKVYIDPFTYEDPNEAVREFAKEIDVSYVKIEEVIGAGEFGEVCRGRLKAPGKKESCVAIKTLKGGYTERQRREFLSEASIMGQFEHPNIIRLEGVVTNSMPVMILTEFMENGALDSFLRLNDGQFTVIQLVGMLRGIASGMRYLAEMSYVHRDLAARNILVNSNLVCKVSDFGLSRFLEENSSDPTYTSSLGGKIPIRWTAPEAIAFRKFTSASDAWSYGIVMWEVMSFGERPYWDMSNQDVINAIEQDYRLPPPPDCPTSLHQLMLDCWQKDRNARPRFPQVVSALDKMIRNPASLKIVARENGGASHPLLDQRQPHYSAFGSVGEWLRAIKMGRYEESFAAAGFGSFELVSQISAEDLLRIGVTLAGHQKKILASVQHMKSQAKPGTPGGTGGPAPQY", "conditions": "panel of 24 kinases, 1 μM ATP, read-out: Inhibition of Kinases IC50", "description": "as §1, §2\nA radiometric protein kinase assay (^33PanQinase® Activity Assay) was used for measuring the kinase activity of the 24 protein kinases. All kinase assays were performed in 96-well FIashPlates™ from Perkin Elmer (Boston, Mass., USA) in a 50 μl reaction volume. […]\n(§7) The reaction cocktails were incubated at 30° C. for 80 minutes. […] Incorporation of ^33Pi was determined with a microplate scintillation counter (Microbeta Trilux, Wallac). […]"}, "PDGFR-beta": {"target": "T4, PDGFR-beta (Homo sapiens, UniProt P09619)", "T4 construct": "made in house; host or cells: Sf9 insect cells (baculovirus)", "T4 sequence (P09619 33-1106)": "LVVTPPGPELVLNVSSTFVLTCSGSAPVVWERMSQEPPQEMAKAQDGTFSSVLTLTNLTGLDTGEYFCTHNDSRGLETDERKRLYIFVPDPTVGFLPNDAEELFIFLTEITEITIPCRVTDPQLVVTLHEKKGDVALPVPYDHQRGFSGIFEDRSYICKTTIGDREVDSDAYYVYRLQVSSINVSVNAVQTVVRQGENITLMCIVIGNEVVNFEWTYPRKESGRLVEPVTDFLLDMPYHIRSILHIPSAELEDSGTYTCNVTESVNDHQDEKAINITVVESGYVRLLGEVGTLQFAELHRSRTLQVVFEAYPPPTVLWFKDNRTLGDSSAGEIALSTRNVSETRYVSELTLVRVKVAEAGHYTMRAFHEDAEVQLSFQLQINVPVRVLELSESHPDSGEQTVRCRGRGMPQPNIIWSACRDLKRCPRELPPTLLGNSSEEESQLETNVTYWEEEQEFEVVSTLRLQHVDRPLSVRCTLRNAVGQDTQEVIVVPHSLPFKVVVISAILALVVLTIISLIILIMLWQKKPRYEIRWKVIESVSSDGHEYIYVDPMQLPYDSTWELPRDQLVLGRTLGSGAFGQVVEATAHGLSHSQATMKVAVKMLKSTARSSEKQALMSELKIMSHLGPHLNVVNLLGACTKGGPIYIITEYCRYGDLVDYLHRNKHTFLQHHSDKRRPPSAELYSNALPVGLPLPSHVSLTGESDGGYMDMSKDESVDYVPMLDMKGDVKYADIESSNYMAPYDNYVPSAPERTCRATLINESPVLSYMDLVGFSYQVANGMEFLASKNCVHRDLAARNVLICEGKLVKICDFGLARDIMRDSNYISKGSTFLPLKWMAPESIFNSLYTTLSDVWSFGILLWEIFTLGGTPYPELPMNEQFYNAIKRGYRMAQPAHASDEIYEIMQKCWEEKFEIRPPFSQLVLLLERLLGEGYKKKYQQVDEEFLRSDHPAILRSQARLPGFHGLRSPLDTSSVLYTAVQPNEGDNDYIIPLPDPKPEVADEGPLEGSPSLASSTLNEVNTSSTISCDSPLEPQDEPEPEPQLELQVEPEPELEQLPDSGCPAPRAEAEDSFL", "conditions": "PDGFR-beta, panel of 24 kinases, 1 μM ATP", "from_the_text": "as §2, §3, §4, §5, §6"}, "SRC": {"target": "T5, SRC (Homo sapiens, UniProt P12931)", "T5 construct": "made in house; host or cells: Sf9 insect cells (baculovirus)", "T5 sequence (P12931 whole entry)": "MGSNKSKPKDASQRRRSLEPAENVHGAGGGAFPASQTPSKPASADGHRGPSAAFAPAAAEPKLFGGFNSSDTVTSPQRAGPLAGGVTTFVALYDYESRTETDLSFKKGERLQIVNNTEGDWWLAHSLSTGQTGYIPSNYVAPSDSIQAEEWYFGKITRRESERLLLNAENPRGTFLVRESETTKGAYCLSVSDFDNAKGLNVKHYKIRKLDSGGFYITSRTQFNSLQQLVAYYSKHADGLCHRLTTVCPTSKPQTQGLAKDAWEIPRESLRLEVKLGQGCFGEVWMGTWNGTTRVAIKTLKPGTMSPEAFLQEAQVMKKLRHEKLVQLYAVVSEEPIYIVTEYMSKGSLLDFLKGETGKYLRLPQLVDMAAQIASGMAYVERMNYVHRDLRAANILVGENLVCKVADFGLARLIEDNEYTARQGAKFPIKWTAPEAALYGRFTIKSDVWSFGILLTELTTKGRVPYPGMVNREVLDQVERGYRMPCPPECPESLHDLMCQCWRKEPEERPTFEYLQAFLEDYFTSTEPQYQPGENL", "conditions": "panel of 24 kinases, 1 μM ATP, read-out: Inhibition of Kinases IC50", "from_the_text": "as §2, §3, §4, §7"}, "VEGF-R2": {"target": "VEGF-R2 (Homo sapiens, UniProt P35968)", "sequence (P35968 20-1356)": "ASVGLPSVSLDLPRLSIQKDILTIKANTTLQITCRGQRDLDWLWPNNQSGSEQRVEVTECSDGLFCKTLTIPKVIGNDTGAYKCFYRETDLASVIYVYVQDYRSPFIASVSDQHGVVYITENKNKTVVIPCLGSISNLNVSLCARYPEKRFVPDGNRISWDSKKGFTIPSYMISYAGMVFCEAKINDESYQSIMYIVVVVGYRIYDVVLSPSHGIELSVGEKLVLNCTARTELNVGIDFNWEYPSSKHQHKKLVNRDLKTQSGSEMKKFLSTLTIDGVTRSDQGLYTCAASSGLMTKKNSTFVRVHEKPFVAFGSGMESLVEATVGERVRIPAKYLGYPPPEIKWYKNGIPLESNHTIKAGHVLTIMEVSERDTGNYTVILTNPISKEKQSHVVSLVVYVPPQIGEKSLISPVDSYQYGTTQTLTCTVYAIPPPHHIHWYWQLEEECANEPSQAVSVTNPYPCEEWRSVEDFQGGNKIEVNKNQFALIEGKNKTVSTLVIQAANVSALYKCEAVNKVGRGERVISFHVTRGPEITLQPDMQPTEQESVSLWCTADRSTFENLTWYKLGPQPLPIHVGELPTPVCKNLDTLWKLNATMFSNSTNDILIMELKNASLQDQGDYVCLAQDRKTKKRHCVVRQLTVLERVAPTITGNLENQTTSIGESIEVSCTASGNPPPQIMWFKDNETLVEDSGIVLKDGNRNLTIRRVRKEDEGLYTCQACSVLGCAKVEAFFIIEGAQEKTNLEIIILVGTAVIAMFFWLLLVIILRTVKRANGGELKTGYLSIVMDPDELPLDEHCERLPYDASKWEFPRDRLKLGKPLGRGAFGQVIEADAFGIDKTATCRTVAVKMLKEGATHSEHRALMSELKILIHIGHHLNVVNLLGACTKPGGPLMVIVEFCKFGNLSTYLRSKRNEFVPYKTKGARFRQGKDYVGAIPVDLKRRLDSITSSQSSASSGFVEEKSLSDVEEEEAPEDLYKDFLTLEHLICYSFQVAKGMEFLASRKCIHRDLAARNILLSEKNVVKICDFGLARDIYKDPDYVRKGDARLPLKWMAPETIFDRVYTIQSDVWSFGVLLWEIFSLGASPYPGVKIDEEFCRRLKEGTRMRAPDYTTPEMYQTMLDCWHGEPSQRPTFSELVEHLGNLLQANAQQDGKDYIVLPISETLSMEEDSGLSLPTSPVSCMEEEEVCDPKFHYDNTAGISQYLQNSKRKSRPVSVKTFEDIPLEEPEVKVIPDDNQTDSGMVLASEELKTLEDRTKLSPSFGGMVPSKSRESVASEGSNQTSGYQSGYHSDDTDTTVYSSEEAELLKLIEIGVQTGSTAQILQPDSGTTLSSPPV", "design": "made in house; host or cells: Sf9 insect cells (baculovirus)", "conditions": "panel of 24 kinases, 1 μM ATP", "description": "as §1, §2, §3, §4, §5, §6"}, "[1]": {"conditions": "read-out: Inhibition of Kinases IC50"}}}
{"smiles": "COc1cc(O)c2c(c1OC)/C=C/C[C@H](O)[C@H](O)C(=O)/C=C\\C[C@H](C)OC2=O", "note": "[Compound 1, Radicicol A]", "values": [{"measurement": "Inhibition of Kinases IC50", "setting": "FLT3; listed as Radicicol A", "value": "potent inhibitory activity (low nM)"}, {"measurement": "Inhibition of Kinases IC50", "setting": "FLT3; listed as radicicol A", "value": "potent inhibitory activity"}, {"measurement": "IC50", "setting": "FLT3; [1]", "value": 110, "unit": "nM"}, {"measurement": "Inhibition of Kinases IC50", "setting": "VEGF-R3; listed as Radicicol A", "value": "potent inhibitory activity (low nM)"}, {"measurement": "Inhibition of Kinases IC50", "setting": "VEGF-R3; listed as radicicol A", "value": "potent inhibitory activity"}, {"measurement": "IC50", "setting": "VEGF-R3; [1]", "value": 66, "unit": "nM"}, {"measurement": "IC50", "setting": "EPHB4", "value": 9100, "unit": "nM"}, {"measurement": "Inhibition of Kinases IC50", "setting": "PDGFR-beta; listed as Radicicol A", "value": "potent inhibitory activity (low nM)"}, {"measurement": "Inhibition of Kinases IC50", "setting": "PDGFR-beta; listed as radicicol A", "value": "potent inhibitory activity"}, {"measurement": "IC50", "setting": "PDGFR-beta; [1]", "value": 210, "unit": "nM"}, {"measurement": "IC50", "setting": "SRC", "value": 9600, "unit": "nM"}, {"measurement": "Inhibition of Kinases IC50", "setting": "VEGF-R2; listed as Radicicol A", "value": "potent inhibitory activity (low nM)"}, {"measurement": "Inhibition of Kinases IC50", "setting": "VEGF-R2; listed as radicicol A", "value": "potent inhibitory activity"}, {"measurement": "IC50", "setting": "VEGF-R2; [1]", "value": 26, "unit": "nM"}]}
